Key:
lymphoma cell lines = assay: 6-hour caspase activation assay (Caspase-Glo 3/7) in 33 lymphoma cell line panel; type: cell-based; conditions: for Emax: 6 hour compound incubation, cell lines highlighted in FIG. 1B, read-out: caspase maximum effect
Protocol: Method: 33 diffuse large B-cell (DLBCL) and Mantle cell (MCL) lymphoma cell lines were seeded onto 384 well plates pre-dosed with 10-point, ½ log titrations of AZD4573 or AZD5991, and incubated for 6 hours. Following the incubation cleaved caspase was measured using Caspase-Glo 3/7 (Promega) following the manufacturer's protocol. Data was analyzed using GeneData Screener and Spotfire.
Method: Cell lysates from 33 lymphoma cell lines were generated in parallel to evaluate protein expression of pro-survival Bcl2 family members. Cell lysates were normalized for protein concentration using the BCA Protein Assay Kit, and western blots were run according to standard protocols. A positive cell line control for expression of Bfl-1, TMD8, was utilized for normalization to other cell lines in the panel. AZD4573 and AZD5991 respective median and geomean caspase EC50's were calculated from cell lines clustered based on high and low Bfl-1 expression, respectively.

pSer2-RNAP2 = assay: Western blot of proximal CDK9 biomarker in OCILY10 cells treated with AZD4573; type: cell-based
Protocol: (§1) Method: The ABC-DLBCL cell line OCILY10 was treated for 6 h with a 9 pt, ½ log dose response of AZD4573 and cells were harvested for protein lysates. These cells were also treated with AZD4573 at 100 nM for varying timepoints out to 6 hours. At each timepoint (0, 0.5, 1, 2, 4, 6 hours) cells were harvested for either mRNA isolation, or protein lysates, respectively. mRNA was converted to cDNA and PCR sequence amplification was performed with Mcl1 and Bcl2a1 primers following standard protocols. Protein lysates were normalized for protein concentration using the BCA Protein Assay Kit, and run for western blots according to standard protocols. To ensure expected target engagement was achieved, the blots were probed for the proximal biomarker for CDK9 (pSer2-RNAPolII), along with Mcl-1 and Bfl-1. To gauge the time to induction of apoptosis, cleaved caspase-3 was assessed. A loading control (vinculin) was also utilized for normalization.

Mcl-1 and Bfl-1 = Mcl-1 and Bfl-1 mRNA (PCR) and Bcl2 family protein (western blot) modulation in OCILY10 cells; type: cell-based
Protocol: as §1

OCILY10 cells = assay: Cleaved caspase-3 induction over time in OCILY10 cells; type: cell-based; conditions: 100 nM AZD4573
Protocol: as §1

OCILY10 xenograft = assay: OCILY10 ABC-DLBCL xenograft efficacy; type: in vivo, C.B.-17 SCID female mice
Protocol: (§2) Method: AZD4573 was formulated in dimethylacetamide (DMA)/polyethylene glycol 400 (PEG 400)/1% w/v Tween 80 solution 2/30/68 and dosed at 15 mg/kg, intraperitoneally (ip), BID with a 2 hour split on days 1 and 2 with a 5 day dose holiday.
(§3) AZD5991 was formulated for intravenous use in 30% HPBCD (hydroxy-propyl-beta-cyclodextrin) in water-for-injection adjusted to pH 9.0-9.5 up to a concentration of 20 mg/mL (based on parent form). AZD5991 was dosed at 60 mg/kg by tail-vain intravenous injection once weekly.
(§4) 5×10^6 OCILy10 tumor cells or 10×10^6 TMD8 tumor cells were injected subcutaneously in the right flank of C.B.-17 SCID female mice in a volume of 0.1 mL containing 50% matrigel.
(§5) Tumor volumes (measured by caliper), animal body weight, and tumor condition were recorded twice weekly for the duration of the studies. The tumor volume was calculated using the formula: length (mm)×width (mm)^2×0.52. For efficacy studies, growth inhibition from the start of treatment was assessed by comparison of the differences in tumor volume between control and treated groups. Dosing began when mean tumor size reached approximately 150-180 mm^3. CR=complete response.

TMD8 xenograft = assay: TMD8 ABC-DLBCL xenograft efficacy; type: in vivo, C.B.-17 SCID female mice
Protocol: as §2, §3, §4, §5

[1] = test system: OCILY10 and TMD8 cell lines; assay: Caspase-Glo 3/7 activation after Bfl-1 siRNA knockdown; type: cell-based; conditions: 6 hours
Protocol: Method: OCILY10 and TMD8 cells were grown in logarithmic phase and plated in serum-free siRNA delivery media at 1×10^6 cells/mL in 12-well plates (Dharmacon B-005000). An siRNA SMARTpool targeting Bfl-1 or a scrambled negative control (NTC) were added to respective wells for 24 hours at 0.1 or 0.5 μM (Dharmacon Bcl2a1-597, NTC-D-001910-01). 2 mL of cell culture media was added to all transfected wells and transferred into a 6-well plate for an additional 48 hours. Transfected cells were collected to assess Bfl-1 protein knockdown and cleaved caspase-3 by western blot. Transfected cells were also seeded onto 384 well plates pre-dosed with an 8-point titration of AZD4573 or AZD5991 and incubated for 6 hours. The plates were measured for activation of cleaved caspase using Caspase-Glo 3/7 (Promega) following the manufacturer's protocol.

[2] = 15 mg/kg ip BID with 2 hour split on days 1 and 2, 5 day dose holiday

Row | geometric mean caspase EC50 difference between AZD5991 and AZD4573 (lymphoma cell lines; Bfl-1 expressing cell lines (n=8)) | geometric mean caspase EC50 difference between AZD5991 and AZD4573 (lymphoma cell lines; cell lines with no expression of Bfl-1 (n=25)) | SMILES | Emax (lymphoma cell lines) | Expression of pSer2-RNAP2 inhibited (pSer2-RNAP2; 100 nM AZD4573, 30 minutes after dosing) | pSer2-RNAP2 inhibition (pSer2-RNAP2; 6 h, serial dilutions of AZD4573) | time by which Mcl1 and Bfl1 mRNA expression were reduced to equivalent levels (Mcl-1 and Bfl-1; 100 nM AZD4573) | time of reductions in Mcl-1 and Bfl-1 protein (Mcl-1 and Bfl-1; 100 nM AZD4573) | expression of longer lived proteins Bcl2, Bcl-xL and Bcl-W (Mcl-1 and Bfl-1; after 6 h treatment with AZD4573) | reductions in Mcl-1 and Bfl-1 protein (Mcl-1 and Bfl-1; at concentrations that inhibited pSer2-RNAP2) | time at which cleaved caspase was detected (OCILY10 cells) | TGI (OCILY10 xenograft; [2]) | anti-tumor response (OCILY10 xenograft; OCILY10 xenograft, AZD4573 treatment) | TGI (TMD8 xenograft; [2]) | anti-tumor response (TMD8 xenograft; TMD8 xenograft, AZD4573 treatment) | maximum level of apoptosis (cleaved caspase) ([1]; OCILY10 and TMD8, Bfl-1 siRNA knockdown cells) | maximum level of apoptosis (cleaved caspase) ([1]; average of OCILY10 and TMD8, without Bfl-1 knockdown)
1 | 22 fold | 4 fold | CC(=O)N[C@@H]1CCC[C@H](C(=O)Nc2cc(-c3cnn4c3CC(C)(C)C4)c(Cl)cn2)C1 [AZD4573, (1S,3R)-3-acetamido-N-(5-chloro-4-(5,5-dimethyl-5,6-dihydro-4H-pyrrolo [1,2-b]pyrazol-3-yl)pyridin-2-yl)cyclohexanecarboxamide] | > 50% | > 80% | inhibited in a dose-dependent manner | ≤ 2 h | 4 h | relatively unchanged | Equipotent reductions | 6 h | 198% | complete tumor regressions | 184% | complete tumor regressions | – | –
2 | – | – | Cc1c2c(nn1C)CSCc1cc(n(C)n1)CSc1cc(c3ccccc3c1)OCCCc1c(C(=O)O)n(C)c3c-2c(Cl)ccc13 (atropisomer, axis not shown) [AZD5991] | < 50% | – | – | – | – | – | – | – | – | – | – | – | over 90% | 45%

— patent US20220008392A1, “METHODS OF TREATING CANCER” (ASTRAZENECA AB, priority 2018, published 2022)
